From PMC6544628, “Plasmodium pseudo-Tyrosine Kinase-like binds PP1 and SERA5 and is exported to host erythrocytes” (Scientific Reports, 2019)

Target: T1, pTKL_KD_WT (PfpTKL kinase domain) (Plasmodium falciparum, UniProt Q8IIT5)
T1 construct: gene pTKL
Settings: labelled compound (ATP immobilised on agarose); protein dialyzed against PBS with 1 mM DTT and 1 mM EDTA

T1 sequence (Q8IIT5 1098-1501): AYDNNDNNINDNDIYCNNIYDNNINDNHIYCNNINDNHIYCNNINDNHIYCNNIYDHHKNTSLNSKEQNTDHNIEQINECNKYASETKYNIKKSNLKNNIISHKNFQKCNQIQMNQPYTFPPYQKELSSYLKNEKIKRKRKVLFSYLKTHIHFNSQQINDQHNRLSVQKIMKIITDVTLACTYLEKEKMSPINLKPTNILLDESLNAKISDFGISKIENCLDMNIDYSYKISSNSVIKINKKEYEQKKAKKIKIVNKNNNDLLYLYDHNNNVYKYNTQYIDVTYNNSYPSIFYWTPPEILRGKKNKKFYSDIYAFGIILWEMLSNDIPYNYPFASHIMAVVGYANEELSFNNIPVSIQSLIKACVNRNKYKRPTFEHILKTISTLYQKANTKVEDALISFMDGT

Nc1ncnc2c1ncn2[C@@H]1O[C@H](COP(=O)(O)OP(=O)(O)OP(=O)(O)O)[C@@H](O)[C@H]1O [ATP]
ATP-agarose bead pull-down, anti-His6 western blot: The PfpTKL pseudo-KD was able to bind ATP but did not display any kinase activity
